# From patent US20250215029A1 (Recludix Pharma, Inc., priority 2022, published 2025)
# Biological target: T1, pY641-STAT6 in PBMC (Homo sapiens, UniProt P42226)
# T1 construct: Cryopreserved Peripheral Blood Mononuclear Cells (PBMC) are from AllCells; host or cells: cryopreserved PBMC
# T1 sequence (P42226 1-847): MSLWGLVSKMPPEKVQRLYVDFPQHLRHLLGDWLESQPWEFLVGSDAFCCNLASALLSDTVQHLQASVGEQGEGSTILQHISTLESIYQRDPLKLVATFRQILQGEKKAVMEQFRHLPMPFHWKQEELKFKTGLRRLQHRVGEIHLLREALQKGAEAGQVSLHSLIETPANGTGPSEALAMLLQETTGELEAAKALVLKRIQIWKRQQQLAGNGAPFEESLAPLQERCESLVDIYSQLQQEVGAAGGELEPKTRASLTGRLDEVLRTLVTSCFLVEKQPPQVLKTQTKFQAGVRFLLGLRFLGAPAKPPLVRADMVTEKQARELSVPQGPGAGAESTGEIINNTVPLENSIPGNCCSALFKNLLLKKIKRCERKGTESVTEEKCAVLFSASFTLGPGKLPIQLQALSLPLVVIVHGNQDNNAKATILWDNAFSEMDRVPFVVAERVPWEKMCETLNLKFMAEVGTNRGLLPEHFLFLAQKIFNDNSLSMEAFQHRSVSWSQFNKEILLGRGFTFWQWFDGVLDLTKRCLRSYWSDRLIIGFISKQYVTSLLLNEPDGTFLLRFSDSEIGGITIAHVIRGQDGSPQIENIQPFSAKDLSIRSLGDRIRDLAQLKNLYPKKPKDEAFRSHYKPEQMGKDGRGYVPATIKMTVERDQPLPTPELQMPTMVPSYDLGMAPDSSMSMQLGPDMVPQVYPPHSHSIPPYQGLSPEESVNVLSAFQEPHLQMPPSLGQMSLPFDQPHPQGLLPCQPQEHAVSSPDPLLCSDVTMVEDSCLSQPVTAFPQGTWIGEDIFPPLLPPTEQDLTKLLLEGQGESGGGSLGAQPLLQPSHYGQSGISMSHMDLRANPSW
# Test: MSD-pSTAT-PBMC Assay (pSTAT6, IL-4 stimulated)
# Type: cell-based
# Details: STAT6, PBMC, compound 3 hrs, then 1 ng/mL IL-4 for 10 min; Table 115
# Outline: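 Thawed human PBMC rested overnight in IMDM/10% FBS, then got compound for 3 hrs before a 10 min cytokine pulse: 1 ng/mL IL-4 for pSTAT6, 10 ng/mL IL-6 for pSTAT3. Lysates went to MSD sandwich capture on total STAT6 or STAT3 with phospho-specific detection. IC50 came from background-subtracted, DMSO-normalized signal.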
row,Structure (SMILES),IC50
1,"COCCOC(=O)[C@H](C)NP(=O)(Oc1ccccc1)[C@@H](F)c1ccc2sc(C(=O)N[C@H]3CCC[C@H]4CC[C@@H](C(=O)N5C[C@@H](c6cccnc6)CC56CC6)N4C3=O)cc2c1 (stereo partly drawn) [Compound 480, 2-methoxyethyl (((R)-fluoro(2-(((3S,6S,9aS)-5-oxo-3-((R)-6-(pyridin-3-yl)-4-azaspiro[2.4]heptane-4-carbonyl)octahydro-1H-pyrrolo[1,2-a]azepin-6-yl)carbamoyl)benzo [b]thiophen-5-yl)methyl)(phenoxy)phosphoryl)-L-alaninate]",< 100 nM
2,"CCCOC(=O)[C@H](C)NP(=O)(Oc1c(C)cccc1C)[C@@H](F)c1ccc2sc(C(=O)N[C@H]3CCC[C@H]4CC[C@@H](C(=O)N5C[C@@H](c6cccnc6)CC56CC6)N4C3=O)cc2c1 (stereo partly drawn) [Compound 481, propyl ((2,6-dimethylphenoxy) ((R)-fluoro(2-(((3S,6S,9aS)-5-oxo-3-((R)-6-(pyridin-3-yl)-4-azaspiro[2.4]heptane-4-carbonyl)octahydro-1H-pyrrolo[1,2-a]azepin-6-yl)carbamoyl)benzo [b]thiophen-5-yl)methyl)phosphoryl)-L-alaninate]",< 100 nM
3,"CCCOC(=O)[C@H](C)NP(=O)(Cc1ccc2sc(C(=O)N[C@H]3CCC[C@H]4CC[C@@H](C(=O)N5C[C@@H](c6ccccc6)[C@H](C#N)C56CC6)N4C3=O)cc2c1)Oc1ccccc1 (stereo partly drawn) [Compound 486, propyl (((2-(((3S,6S,9aS)-3-((6R,7S)-7-cyano-6-phenyl-4-azaspiro[2.4]heptane-4-carbonyl)-5-oxooctahydro-1H-pyrrolo[1,2-a]azepin-6-yl)carbamoyl)benzo [b]thiophen-5-yl)methyl)(phenoxy)phosphoryl)-L-alaninate]",< 100 nM
4,"CCCOC(=O)[C@@H]1CCCN1P(=O)(Oc1ccccc1)[C@H](F)c1ccc2sc(C(=O)N[C@H]3CCC[C@H]4CC[C@@H](C(=O)N5C[C@H](c6ccccc6)[C@@H](C#N)C56CC6)N4C3=O)cc2c1 (stereo partly drawn) [Compound 487, propyl (((S)-(2-(((3S,6S,9aS)-3-((6S,7R)-7-cyano-6-phenyl-4-azaspiro[2.4]heptane-4-carbonyl)-5-oxooctahydro-1H-pyrrolo[1,2-a]azepin-6-yl)carbamoyl)benzo [b]thiophen-5-yl)fluoromethyl) (phenoxy)phosphoryl)-L-prolinate]",1000 to 3000 nM
5,"CCCOC(=O)[C@@H]1CCN1P(=O)(Oc1ccccc1)[C@H](F)c1ccc2sc(C(=O)N[C@H]3CCC[C@H]4CC[C@@H](C(=O)N5C[C@H](c6ccccc6)[C@@H](C#N)C56CC6)N4C3=O)cc2c1 (stereo partly drawn) [Compound 488, propyl (2S)-1-(((S)-(2-(((3S,6S,9aS)-3-((6S,7R)-7-cyano-6-phenyl-4-azaspiro[2.4]heptane-4-carbonyl)-5-oxooctahydro-1H-pyrrolo[1,2-a]azepin-6-yl)carbamoyl)benzo [b]thiophen-5-yl)fluoromethyl) (phenoxy)phosphoryl) azetidine-2-carboxylate]",1000 to 3000 nM
6,"CCCOC(=O)[C@H](C)NP(=O)(Oc1ccccc1)[C@@H](F)c1ccc2sc(C(=O)N[C@H]3CC[C@H](N4CCC4)C[C@H]4CC[C@@H](C(=O)N5C[C@@H](c6ccccc6)[C@H](C#N)C56CC6)N4C3=O)cc2c1 (stereo partly drawn) [Compound 489, propyl (((R)-(2-(((3S,6S,9S,10aR)-9-(azetidin-1-yl)-3-((6R,7S)-7-cyano-6-phenyl-4-azaspiro[2.4]heptane-4-carbonyl)-5-oxodecahydropyrrolo [1,2-a]azocin-6-yl)carbamoyl)benzo [b]thiophen-5-yl)fluoromethyl) (phenoxy)phosphoryl)-L-alaninate]",100 to 1000 nM
7,"CCCOC(=O)[C@H](C)NP(=O)(Oc1ccccc1)[C@@H](F)c1ccc2sc(C(=O)N[C@H]3CC[C@H](N4CCC4)C[C@H]4CC[C@@H](C(=O)N5C[C@H](c6ccccc6)[C@@H](C#N)C56CC6)N4C3=O)cc2c1 (stereo partly drawn) [Compound 490, propyl (((R)-(2-(((3S,6S,9S,10aR)-9-(azetidin-1-yl)-3-((6S,7R)-7-cyano-6-phenyl-4-azaspiro[2.4]heptane-4-carbonyl)-5-oxodecahydropyrrolo [1,2-a]azocin-6-yl)carbamoyl)benzo [b]thiophen-5-yl)fluoromethyl) (phenoxy)phosphoryl)-L-alaninate]",100 to 1000 nM
8,"CCCOC(=O)[C@H](C)NP(=O)(Oc1ccccc1)[C@H](F)c1ccc2sc(C(=O)N[C@H]3CC[C@H](N4CCC4)C[C@H]4CC[C@@H](C(=O)N5C[C@H](c6ccccc6)[C@@H](C#N)C56CC6)N4C3=O)cc2c1 (stereo partly drawn) [Compound 491, propyl (((S)-(2-(((3S,6S,9S,10aR)-9-(azetidin-1-yl)-3-((6S,7R)-7-cyano-6-phenyl-4-azaspiro[2.4]heptane-4-carbonyl)-5-oxodecahydropyrrolo [1,2-a]azocin-6-yl)carbamoyl)benzo [b]thiophen-5-yl)fluoromethyl) (phenoxy)phosphoryl)-L-alaninate]",< 100 nM
9,"CCCOC(=O)[C@H](C)NP(=O)(Oc1ccccc1)[C@H](F)c1ccc2sc(C(=O)N[C@H]3CC[C@H](N4CCC4)C[C@H]4CC[C@@H](C(=O)N5C[C@@H](c6ccccc6)[C@H](C#N)C56CC6)N4C3=O)cc2c1 (stereo partly drawn) [Compound 492, propyl (((S)-(2-(((3S,6S,9S,10aR)-9-(azetidin-1-yl)-3-((6R,7S)-7-cyano-6-phenyl-4-azaspiro[2.4]heptane-4-carbonyl)-5-oxodecahydropyrrolo [1,2-a]azocin-6-yl)carbamoyl)benzo [b]thiophen-5-yl)fluoromethyl) (phenoxy)phosphoryl)-L-alaninate]",< 100 nM
10,"CCCOC(=O)[C@H](C)NP(=O)(Oc1ccccc1)C(F)c1ccc2sc(C(=O)N[C@H]3CCCC[C@H]4CC[C@@H](C(=O)N5C(=O)N(c6cc(=O)n(C)cc6F)C(=O)C56CC6)N4C3=O)cc2c1 (stereo partly drawn) [Compound 976, propyl ((fluoro(2-(((3S,6S,10aS)-3-(6-(5-fluoro-1-methyl-2-oxo-1,2-dihydropyridin-4-yl)-5,7-dioxo-4,6-diazaspiro [2.4]heptane-4-carbonyl)-5-oxodecahydropyrrolo [1,2-a]azocin-6-yl)carbamoyl)benzo [b]thiophen-5-yl)methyl)(phenoxy)phosphoryl)-L-alaninate]",> 3000 nM
11,"CCCOC(=O)[C@H](C)NP(=O)(Oc1ccccc1)C(F)c1ccc2sc(C(=O)N[C@H]3CCCC[C@H]4CC[C@@H](C(=O)N5C(=O)N(c6ccn(C)c(=O)c6)C(=O)C56CC6)N4C3=O)cc2c1 (stereo partly drawn) [Compound 977, propyl ((fluoro(2-(((3S,6S,10aS)-3-(6-(1-methyl-2-oxo-1,2-dihydropyridin-4-yl)-5,7-dioxo-4,6-diazaspiro[2.4]heptane-4-carbonyl)-5-oxodecahydropyrrolo [1,2-a]azocin-6-yl)carbamoyl)benzo [b]thiophen-5-yl)methyl)(phenoxy)phosphoryl)-L-alaninate]",100 to 1000 nM
12,"CCCOC(=O)[C@H](C)NP(=O)(Oc1ccccc1)C(F)c1ccc2sc(C(=O)N[C@H]3CCCC[C@H]4CC[C@@H](C(=O)N5C(=O)N(c6ccn(C(C)C)c(=O)c6)C(=O)C56CC6)N4C3=O)cc2c1 (stereo partly drawn) [Compound 981, propyl ((fluoro(2-(((3S,6S,10aS)-3-(6-(1-isopropyl-2-oxo-1,2-dihydropyridin-4-yl)-5,7-dioxo-4,6-diazaspiro [2.4]heptane-4-carbonyl)-5-oxodecahydropyrrolo [1,2-a]azocin-6-yl)carbamoyl)benzo [b]thiophen-5-yl)methyl)(phenoxy)phosphoryl)-L-alaninate]",> 3000 nM
13,"CCCOC(=O)[C@H](C)NP(=O)(Oc1ccccc1)C(F)c1ccc2sc(C(=O)N[C@H]3CCCC[C@H]4CC[C@@H](C(=O)N5C(=O)N(c6cccc7c6OC(F)(F)O7)C(=O)C56CC6)N4C3=O)cc2c1 (stereo partly drawn) [Compound 982, propyl (((2-(((3S,6S,10aS)-3-(6-(2,2-difluorobenzo[d][1, 3]dioxol-4-yl)-5,7-dioxo-4,6-diazaspiro [2.4]heptane-4-carbonyl)-5-oxodecahydropyrrolo [1,2-a]azocin-6-yl)carbamoyl)benzo [b]thiophen-5-yl)fluoromethyl) (phenoxy)phosphoryl)-L-alaninate]",> 3000 nM
14,"CCCOC(=O)[C@H](C)NP(=O)(Oc1ccccc1)C(F)c1ccc2sc(C(=O)N[C@H]3CCCC[C@H]4CC[C@@H](C(=O)N5C(=O)N(c6cccnc6)C(=O)C5(C)C)N4C3=O)cc2c1 (stereo partly drawn) [Compound 989, propyl (((2-(((3S,6S,10aS)-3-(5,5-dimethyl-2,4-dioxo-3-(pyridin-3-yl)imidazolidine-1-carbonyl)-5-oxodecahydropyrrolo [1,2-a]azocin-6-yl)carbamoyl)benzo [b]thiophen-5-yl)fluoromethyl) (phenoxy)phosphoryl)-L-alaninate]",> 3000 nM
